According to patent US8466154B2, “Methods and compositions related to wrapping of dehydrons” (The Board of Regents of the University of Texas System, priority 2006, dated 2013):
Values belong to the compound of their own block, whether it stands above or below them.

Key:
[1] = test system: K562 cells; assay: Alamar blue proliferation assay of liposomal WBZ—1 formulations; format: cell-based; settings: calculated from previous experiments with a similar system
Experimental: FIG. 12. K562 cells derived from chronic myeloid leukemia (CML) tumors and treated with WBZ—1 liposomal formulation using drug:lipid ratio 1:10. Cells were plated in a 96 well plate at a concentration of 10,000 cells per well and were treated 2 hours later. After 48 hours incubation, an Alamar blue assay was performed. Cells proliferation was expressed as the percentage of proliferating cells compared to the untreated. […] (*) This concentration is the maximum uptake that was calculated based on previous work using a similar system (Tari, 1996). The actual cellular uptake can be considerable lower, even 10^−3 times the effective concentration. The inventors can determine the exact uptake in future experiments using a radiolabeled lipid and prototype compound.
This modification should lead to a selective inhibition of the Bcr-Abl kinase, and indeed it does. […] In order to determine the best lipid formulation to be used, the inventors tested different WBZ—1:MDPC ratios. […] Cell proliferation inhibition was determined by Alamar blue assay after 48 hours of incubation and calculated as percentage of inhibition comparing with the untreated control. All formulations were nontoxic for the cells and a dose response curve was observed. The effective concentration ranges between 0.1 and 1 μM regardless of the lipid:drug ratio used. […]

[2] = solubility (observation); format: physicochemical
[3] = test system: ERK1/2; assay: Western blot of phosphorylated kinases in neonatal rat ventricular myocytes (NRVM); format: cell-based; settings: 1-50 μM, 24 h, compared to untreated cultures
Experimental: This protective role of WBZ—4 has also been validated in vivo. Animals used in these studies were handled in accordance with National Institutes of Health “Guide for the Care and Use of Laboratory Animals” [Department of Health and Human Services Publication No. (NIH) 85-23, Revised 1985]. […] NRVM were isolated from the hearts of 2 day-old Sprague-Dawley rat pups via collagenase digestion as previously described (Samarel and Engelmann, 1991). Dissociated cells were pre-plated for 1 hour in serum-free PC-1 medium to selectively remove nonmuscle cells. Myocytes were then plated in PC-1 medium at a density of 1600 cells per mm^2 onto collagen-coated, plastic 35-mm dishes, and left undisturbed in a 5% CO2 incubator for 24 h. Unattached cells were removed by aspiration, and the attached cells were maintained in a solution of DMEM/Medium 199 (4:1) containing antibiotic/antimycotic solution for 24 h. […] NRVM were homogenized in lysis buffer (Schlaepfer and Hunter, 1996). Equal amounts of extracted proteins were separated on 10% SDS-polyacrylamide gels with 5% stacking gels. […] Primary antibody binding was detected with horseradish-peroxidase conjugated goat anti-mouse or goat anti-rabbit secondary antibody, and visualized by enhanced chemiluminescence.

[4] = test system: JNK1/2; assay: as above; format: cell-based; settings: 1-50 μM, 24 h, compared to untreated cells
[5] = biological target: T1, C-Kit (Homo sapiens, UniProt P10721, K642E); assay: Western blot of C-Kit phosphorylation (Tyr703, Tyr721) in ST882 cells; format: cell-based; settings: 6 hours, read-out: inhibitory impact on C-Kit phosphorylation in GIST cells
T1 construct: endogenous in cells; host or cells: ST882 (GIST882) cells
Experimental: A Western blot assay on treated cancer-derived cell lines (FIGS. 8C and 8D) was performed to determine the in-cell specificity of WBZ—4. […] After allowing the cells to attach for 24 hours, the cells were treated with 1 μM of WBZ—4 or Gleevec for 6 hours. For Western blotting, 50 μg of total protein were separated on a SDS-PAGE (Bio-Rad) and blotted onto nitrocellulose membranes (Bio-Rad Laboratories, Life Science Research, Hercules, Calif.). Antibodies used: anti phospho-c-Kit polyclonal antibody, Tyr703 and Tyr721 (Zymed Laboratories Inc., South San Francisco, Calif.), anti-c-Kit monoclonal antibody (E-1): sc-17806 (Santa Cruz Biotechnology) and anti β-actin monoclonal antibody (Sigma, St. Louis, Mo.). K562 cells were plated at 5×10^5 cells/well. […] Antibodies used: anti phospho-c-Abl (Tyr 412) monoclonal antibody 247C7 (Cell Signalling Technology Inc), anti-Abl monoclonal antibody (Sigma, St. Louis, Mo.).

[6] = test system: brain natriuretic peptide (BNP); assay: RT-PCR of BNP mRNA in left ventricle of treated mice; settings: GIST model mice after therapy
[7] = biological target: T2, Chk1 (Homo sapiens, UniProt O14757); assay: kinetic spectrophotometric assay of phosphorylation rate; format: biochemical
T2 sequence (O14757 1-476): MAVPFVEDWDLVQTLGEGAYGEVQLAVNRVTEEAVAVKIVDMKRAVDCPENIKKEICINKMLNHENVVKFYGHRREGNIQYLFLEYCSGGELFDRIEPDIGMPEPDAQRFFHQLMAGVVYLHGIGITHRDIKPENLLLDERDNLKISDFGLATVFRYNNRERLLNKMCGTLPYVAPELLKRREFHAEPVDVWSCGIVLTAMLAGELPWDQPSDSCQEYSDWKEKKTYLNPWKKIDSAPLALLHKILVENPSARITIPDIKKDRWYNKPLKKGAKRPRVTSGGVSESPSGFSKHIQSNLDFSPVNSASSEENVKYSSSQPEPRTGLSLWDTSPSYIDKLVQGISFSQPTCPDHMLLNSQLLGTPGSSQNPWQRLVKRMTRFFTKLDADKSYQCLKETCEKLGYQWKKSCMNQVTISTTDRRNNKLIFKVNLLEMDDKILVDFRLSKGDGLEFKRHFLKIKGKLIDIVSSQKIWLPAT
From the text: (§1) To assess the specificity and affinity for Src, the staurosporine derivative is compared with the parental compound. […] Kinetic spectrophotometric assays where performed as indicated above. These assays were geared at measuring the phosphorylation rate of peptide substrates in the presence of the kinase inhibitor at different concentrations.

[8] = biological target: T3, PDK1 (Homo sapiens, UniProt O15530); assay: as above; format: biochemical
T3 sequence (O15530 1-556): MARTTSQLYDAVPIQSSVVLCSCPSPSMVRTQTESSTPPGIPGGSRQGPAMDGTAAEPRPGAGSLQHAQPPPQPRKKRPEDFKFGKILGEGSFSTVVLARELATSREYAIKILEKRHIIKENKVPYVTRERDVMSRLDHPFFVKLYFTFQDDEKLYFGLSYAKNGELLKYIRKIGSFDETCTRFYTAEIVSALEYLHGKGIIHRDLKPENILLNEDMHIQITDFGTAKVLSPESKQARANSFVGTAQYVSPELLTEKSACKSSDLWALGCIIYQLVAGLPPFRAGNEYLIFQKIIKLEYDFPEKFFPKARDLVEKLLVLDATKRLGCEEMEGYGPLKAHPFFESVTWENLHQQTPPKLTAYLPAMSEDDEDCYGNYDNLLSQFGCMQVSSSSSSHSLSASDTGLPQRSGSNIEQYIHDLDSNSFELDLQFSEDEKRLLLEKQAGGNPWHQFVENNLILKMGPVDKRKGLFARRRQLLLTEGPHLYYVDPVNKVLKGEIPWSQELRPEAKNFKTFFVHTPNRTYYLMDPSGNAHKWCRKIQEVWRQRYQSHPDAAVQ
From the text: as §1

[9] = test system: Src kinase; assay: as above; format: biochemical
From the text: as §1

solubility [2]: insolubility
Structure (SMILES): Cc1ccc(NC(=O)c2ccc(CN3CCN(C)CC3)cc2)cc1Nc1nccc(-c2cnccc2C)n1 [WBZ—1, N-{5-[4-(4-methylpiperazinemethyl)-benzoylamido]-2-methylphenyl}-4-[3-(4-methyl)-pyridyl]-2-pyrimidine amine]
uptake of WBZ—1 after 48 hours [1]: 72 pmol

Structure (SMILES): Cc1ccc(NC(=O)c2ccc(CN3CCN(C)CC3)cc2)cc1Nc1nccc(-c2cccnc2)n1 [imatinib, reference compound]
phosphorylation state of ERK1/2 in cardiomyocytes [3]: increased | JNK1/2 activation in cardiomyocytes [4]: activates JNKs | inhibition at 1 µM [5]: ~85% | BNP mRNA levels in the left ventricle, higher than untreated [6]: about 58%

Structure (SMILES): CN[C@@H]1C[C@H]2O[C@@](C)([C@@H]1OC)n1c3ccccc3c3c4c(c5c6ccccc6n2c5c31)C(=O)N(C)C4 [methylated staurosporine derivative]
inhibitory impact against Chk1 [7]: very low inhibitory impact | inhibitory impact against PDK1 [8]: very low inhibitory impact | inhibition of Src compared with staurosporine levels [9]: improved
